Measurements published in US8772480B2, “Inhibitors of PI3 kinase and/or mTOR” (priority 2009, dated 2014).

Tests used:
Assay type in all cases: biochemical
[1] = biological target: ProfilerPro Kinase Selectivity Assay Kit kinases (Homo sapiens, UniProt P24941); conditions: CDK2; 1 μM compound concentration
Description: (§1) Compounds were profiled using a LabChip® EZ Reader II platform and a ProfilerPro Kinase Selectivity Assay Kit (Caliper Lifesciences Inc., Hopkinton, Mass.). Compounds were tested at a concentration of 1 M in duplicate, with mean data reported as percent of control (POC).

[2] = biological target: ProfilerPro Kinase Selectivity Assay Kit kinases (Homo sapiens, UniProt Q06187); conditions: BTK; 1 μM compound concentration
Description: as §1

[3] = biological target: ProfilerPro Kinase Selectivity Assay Kit kinases (Homo sapiens, UniProt P04049); conditions: cRAF; 1 μM compound concentration
Description: as §1

[4] = biological target: ProfilerPro Kinase Selectivity Assay Kit kinases (Homo sapiens, UniProt Q8IW41); conditions: PRAK; 1 μM compound concentration
Description: as §1

[5] = biological target: ProfilerPro Kinase Selectivity Assay Kit kinases (Homo sapiens, UniProt P17612); conditions: PKA alpha; 1 μM compound concentration
Description: as §1

[6] = biological target: ProfilerPro Kinase Selectivity Assay Kit kinases (Homo sapiens, UniProt P31749); conditions: AKT1; 1 μM compound concentration
Description: as §1

[7] = biological target: ProfilerPro Kinase Selectivity Assay Kit kinases (Homo sapiens, UniProt Q13188); conditions: MST2; 1 μM compound concentration
Description: as §1

[8] = biological target: ProfilerPro Kinase Selectivity Assay Kit kinases (Homo sapiens, UniProt Q13627); conditions: DYRK1a; 1 μM compound concentration
Description: as §1

[9] = biological target: ProfilerPro Kinase Selectivity Assay Kit kinases (Homo sapiens, UniProt P07948); conditions: LYN; 1 μM compound concentration
ProfilerPro Kinase Selectivity Assay Kit kinases (Homo sapiens, UniProt P07948), sequence (P07948 2-512 limits assumed): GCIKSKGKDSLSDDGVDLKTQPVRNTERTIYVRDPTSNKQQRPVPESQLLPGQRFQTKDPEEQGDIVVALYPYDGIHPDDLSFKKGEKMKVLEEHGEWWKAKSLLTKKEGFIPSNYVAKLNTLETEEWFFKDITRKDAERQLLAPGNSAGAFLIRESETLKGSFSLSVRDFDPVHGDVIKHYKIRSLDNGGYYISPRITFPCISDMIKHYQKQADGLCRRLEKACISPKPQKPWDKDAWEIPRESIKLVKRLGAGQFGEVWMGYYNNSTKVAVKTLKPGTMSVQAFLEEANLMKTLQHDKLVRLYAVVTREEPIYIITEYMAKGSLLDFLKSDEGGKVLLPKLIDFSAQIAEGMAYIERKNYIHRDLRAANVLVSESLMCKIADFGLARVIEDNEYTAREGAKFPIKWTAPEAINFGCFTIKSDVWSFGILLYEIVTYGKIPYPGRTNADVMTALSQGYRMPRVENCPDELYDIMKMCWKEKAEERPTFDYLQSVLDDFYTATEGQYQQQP
Description: as §1

[10] = biological target: ProfilerPro Kinase Selectivity Assay Kit kinases (Homo sapiens, UniProt O14757); conditions: CHK1; 1 μM compound concentration
Description: as §1

[11] = biological target: ProfilerPro Kinase Selectivity Assay Kit kinases (Homo sapiens, UniProt Q9P0L2); conditions: MARK1; 1 μM compound concentration
Description: as §1

[12] = biological target: ProfilerPro Kinase Selectivity Assay Kit kinases (Homo sapiens, UniProt P06239); conditions: LCK; 1 μM compound concentration
Description: as §1

[13] = biological target: ProfilerPro Kinase Selectivity Assay Kit kinases (Homo sapiens, UniProt P06213); conditions: INSR; 1 μM compound concentration
Description: as §1

[14] = biological target: ProfilerPro Kinase Selectivity Assay Kit kinases (Homo sapiens, UniProt P08581); conditions: cMET; 1 μM compound concentration
Description: as §1

[15] = biological target: ProfilerPro Kinase Selectivity Assay Kit kinases (Homo sapiens, UniProt O75582); conditions: MSK1; 1 μM compound concentration
Description: as §1

[16] = biological target: ProfilerPro Kinase Selectivity Assay Kit kinases (Homo sapiens, UniProt P27361); conditions: ERK1; 1 μM compound concentration
ProfilerPro Kinase Selectivity Assay Kit kinases (Homo sapiens, UniProt P27361), sequence (P27361 2-379 limits assumed): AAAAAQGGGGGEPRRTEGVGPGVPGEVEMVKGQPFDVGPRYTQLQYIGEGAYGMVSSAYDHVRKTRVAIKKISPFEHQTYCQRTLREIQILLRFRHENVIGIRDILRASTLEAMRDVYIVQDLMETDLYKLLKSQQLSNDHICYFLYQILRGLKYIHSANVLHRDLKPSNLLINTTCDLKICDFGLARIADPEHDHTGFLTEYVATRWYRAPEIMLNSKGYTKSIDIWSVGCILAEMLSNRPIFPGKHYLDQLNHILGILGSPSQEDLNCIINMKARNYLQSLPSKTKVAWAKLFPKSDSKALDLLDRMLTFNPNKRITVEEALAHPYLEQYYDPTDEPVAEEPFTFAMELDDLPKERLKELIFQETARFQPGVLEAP
Description: as §1

[17] = biological target: ProfilerPro Kinase Selectivity Assay Kit kinases (Homo sapiens, UniProt Q16566); conditions: CAMK4; 1 μM compound concentration
Description: as §1

[18] = biological target: ProfilerPro Kinase Selectivity Assay Kit kinases (Homo sapiens, UniProt P23443); conditions: p70S6K; 1 μM compound concentration
Description: as §1

[19] = biological target: ProfilerPro Kinase Selectivity Assay Kit kinases (Homo sapiens, UniProt P49841); conditions: GSK3 beta; 1 μM compound concentration
Description: as §1

[20] = biological target: ProfilerPro Kinase Selectivity Assay Kit kinases (Homo sapiens, UniProt P00519); conditions: ABL; 1 μM compound concentration
Description: as §1

[21] = biological target: ProfilerPro Kinase Selectivity Assay Kit kinases (Homo sapiens, UniProt O14965); conditions: AURORA A; 1 μM compound concentration
Description: as §1

[22] = biological target: ProfilerPro Kinase Selectivity Assay Kit kinases (Homo sapiens, UniProt P36888); conditions: FLT3; 1 μM compound concentration
Description: as §1

[23] = biological target: ProfilerPro Kinase Selectivity Assay Kit kinases (Homo sapiens, UniProt P28482); conditions: ERK2; 1 μM compound concentration
ProfilerPro Kinase Selectivity Assay Kit kinases (Homo sapiens, UniProt P28482), sequence (P28482 2-360 limits assumed): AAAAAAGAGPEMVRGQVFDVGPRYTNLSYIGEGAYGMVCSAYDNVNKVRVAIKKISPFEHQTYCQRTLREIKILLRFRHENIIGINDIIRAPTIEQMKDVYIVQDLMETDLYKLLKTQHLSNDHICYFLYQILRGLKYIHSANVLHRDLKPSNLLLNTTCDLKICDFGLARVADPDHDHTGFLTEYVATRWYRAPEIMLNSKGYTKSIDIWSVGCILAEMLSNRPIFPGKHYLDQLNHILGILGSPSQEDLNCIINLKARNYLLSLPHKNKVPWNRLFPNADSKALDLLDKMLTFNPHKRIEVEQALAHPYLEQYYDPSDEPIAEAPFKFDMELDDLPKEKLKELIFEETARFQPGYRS
Description: as §1

[24] = biological target: ProfilerPro Kinase Selectivity Assay Kit kinases (Homo sapiens, UniProt Q13976); conditions: PKGa2; 1 μM compound concentration
ProfilerPro Kinase Selectivity Assay Kit kinases (Homo sapiens, UniProt Q13976), sequence (Q13976 2-671 limits assumed): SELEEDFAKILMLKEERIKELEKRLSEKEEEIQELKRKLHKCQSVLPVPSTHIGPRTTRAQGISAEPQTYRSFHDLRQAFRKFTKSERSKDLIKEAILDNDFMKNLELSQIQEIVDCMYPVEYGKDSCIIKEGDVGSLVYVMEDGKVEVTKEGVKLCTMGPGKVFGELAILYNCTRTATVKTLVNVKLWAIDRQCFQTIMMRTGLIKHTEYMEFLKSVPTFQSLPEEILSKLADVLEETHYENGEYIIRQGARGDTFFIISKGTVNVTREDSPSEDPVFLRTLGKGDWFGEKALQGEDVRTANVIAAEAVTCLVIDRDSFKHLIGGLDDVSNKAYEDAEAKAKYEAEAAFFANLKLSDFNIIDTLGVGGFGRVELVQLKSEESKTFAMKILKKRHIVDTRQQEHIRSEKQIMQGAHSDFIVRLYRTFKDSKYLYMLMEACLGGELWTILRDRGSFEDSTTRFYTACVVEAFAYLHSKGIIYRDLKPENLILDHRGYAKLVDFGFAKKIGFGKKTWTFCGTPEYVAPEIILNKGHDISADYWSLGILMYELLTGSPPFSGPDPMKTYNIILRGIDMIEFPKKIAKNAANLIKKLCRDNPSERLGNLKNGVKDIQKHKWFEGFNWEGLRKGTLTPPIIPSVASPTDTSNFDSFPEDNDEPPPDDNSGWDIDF
Description: as §1

[25] = biological target: ProfilerPro Kinase Selectivity Assay Kit kinases (Homo sapiens, UniProt P12931); conditions: SRC; 1 μM compound concentration
ProfilerPro Kinase Selectivity Assay Kit kinases (Homo sapiens, UniProt P12931), sequence (P12931 2-536 limits assumed): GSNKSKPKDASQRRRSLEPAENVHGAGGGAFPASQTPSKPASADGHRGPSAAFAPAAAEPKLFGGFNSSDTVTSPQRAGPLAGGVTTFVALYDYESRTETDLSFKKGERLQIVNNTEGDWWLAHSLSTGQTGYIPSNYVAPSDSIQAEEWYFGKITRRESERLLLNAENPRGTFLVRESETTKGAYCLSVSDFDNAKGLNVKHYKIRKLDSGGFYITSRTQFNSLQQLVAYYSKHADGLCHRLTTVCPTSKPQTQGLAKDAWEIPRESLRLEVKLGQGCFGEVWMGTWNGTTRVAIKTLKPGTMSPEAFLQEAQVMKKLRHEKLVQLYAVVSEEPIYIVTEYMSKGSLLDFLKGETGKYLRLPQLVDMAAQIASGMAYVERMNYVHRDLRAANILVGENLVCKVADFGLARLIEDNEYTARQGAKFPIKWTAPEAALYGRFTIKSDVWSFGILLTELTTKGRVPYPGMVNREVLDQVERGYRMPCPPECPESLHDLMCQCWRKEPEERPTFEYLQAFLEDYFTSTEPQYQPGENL
Description: as §1

[26] = biological target: ProfilerPro Kinase Selectivity Assay Kit kinases (Homo sapiens, UniProt Q16539); conditions: p38 alpha; 1 μM compound concentration
ProfilerPro Kinase Selectivity Assay Kit kinases (Homo sapiens, UniProt Q16539), sequence (Q16539 2-360 limits assumed): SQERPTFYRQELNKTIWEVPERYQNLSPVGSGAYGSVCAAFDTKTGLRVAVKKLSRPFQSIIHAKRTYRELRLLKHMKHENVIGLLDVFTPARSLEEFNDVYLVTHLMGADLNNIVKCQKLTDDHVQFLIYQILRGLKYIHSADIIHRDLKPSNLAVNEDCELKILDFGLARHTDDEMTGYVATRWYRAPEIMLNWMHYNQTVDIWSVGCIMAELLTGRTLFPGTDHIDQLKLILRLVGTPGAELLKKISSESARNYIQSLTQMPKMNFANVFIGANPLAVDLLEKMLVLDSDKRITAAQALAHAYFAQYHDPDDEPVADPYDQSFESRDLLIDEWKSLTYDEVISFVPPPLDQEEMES
Description: as §1

[27] = biological target: ProfilerPro Kinase Selectivity Assay Kit kinases (Homo sapiens, UniProt Q15418); conditions: RSK1; 1 μM compound concentration
Description: as §1

[28] = biological target: ProfilerPro Kinase Selectivity Assay Kit kinases (Homo sapiens, UniProt P11362); conditions: FGFR1; 1 μM compound concentration
Description: as §1

[29] = biological target: ProfilerPro Kinase Selectivity Assay Kit kinases (Homo sapiens, UniProt O95819); conditions: HGK; 1 μM compound concentration
ProfilerPro Kinase Selectivity Assay Kit kinases (Homo sapiens, UniProt O95819), sequence (O95819 2-1239 limits assumed): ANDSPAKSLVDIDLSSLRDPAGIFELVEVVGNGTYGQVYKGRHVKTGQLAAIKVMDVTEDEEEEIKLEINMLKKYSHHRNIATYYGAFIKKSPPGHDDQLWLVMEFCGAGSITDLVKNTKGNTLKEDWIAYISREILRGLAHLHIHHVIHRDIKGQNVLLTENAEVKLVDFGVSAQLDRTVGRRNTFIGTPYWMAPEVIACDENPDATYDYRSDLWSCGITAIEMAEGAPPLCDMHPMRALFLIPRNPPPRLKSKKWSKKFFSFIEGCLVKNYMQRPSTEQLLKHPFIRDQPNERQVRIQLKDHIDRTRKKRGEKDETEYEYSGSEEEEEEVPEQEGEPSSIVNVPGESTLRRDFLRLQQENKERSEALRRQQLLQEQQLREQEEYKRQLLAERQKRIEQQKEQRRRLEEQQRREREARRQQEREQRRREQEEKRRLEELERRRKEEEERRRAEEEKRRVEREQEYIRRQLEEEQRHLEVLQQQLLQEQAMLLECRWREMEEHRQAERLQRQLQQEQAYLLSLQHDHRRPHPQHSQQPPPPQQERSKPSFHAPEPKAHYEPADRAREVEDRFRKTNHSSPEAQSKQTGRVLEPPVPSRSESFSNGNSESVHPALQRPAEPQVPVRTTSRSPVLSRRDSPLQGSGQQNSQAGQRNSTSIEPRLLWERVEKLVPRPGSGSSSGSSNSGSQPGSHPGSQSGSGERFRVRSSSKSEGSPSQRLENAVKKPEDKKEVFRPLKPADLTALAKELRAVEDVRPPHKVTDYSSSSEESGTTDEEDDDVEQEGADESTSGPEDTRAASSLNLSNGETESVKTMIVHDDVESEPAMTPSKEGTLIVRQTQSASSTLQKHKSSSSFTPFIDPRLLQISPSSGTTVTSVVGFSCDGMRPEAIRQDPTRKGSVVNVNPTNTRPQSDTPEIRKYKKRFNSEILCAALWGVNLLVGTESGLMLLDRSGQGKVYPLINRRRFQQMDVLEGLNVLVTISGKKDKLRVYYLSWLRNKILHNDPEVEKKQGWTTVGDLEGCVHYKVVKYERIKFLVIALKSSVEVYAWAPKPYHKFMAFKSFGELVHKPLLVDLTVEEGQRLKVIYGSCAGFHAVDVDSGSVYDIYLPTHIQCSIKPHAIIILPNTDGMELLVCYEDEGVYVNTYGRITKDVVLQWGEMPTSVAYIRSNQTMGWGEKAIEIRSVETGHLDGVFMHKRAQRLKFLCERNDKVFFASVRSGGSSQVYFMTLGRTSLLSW
Description: as §1

[30] = biological target: ProfilerPro Kinase Selectivity Assay Kit kinases (Homo sapiens, UniProt P08069); conditions: IGF1R; 1 μM compound concentration
Description: as §1

[31] = biological target: ProfilerPro Kinase Selectivity Assay Kit kinases (Homo sapiens, UniProt P48730); conditions: CK1 delta; 1 μM compound concentration
Description: as §1

ProfilerPro Kinase Selectivity Assay Kit kinases (Homo sapiens, UniProt Q06187), sequence (Q06187 2-659 limits assumed): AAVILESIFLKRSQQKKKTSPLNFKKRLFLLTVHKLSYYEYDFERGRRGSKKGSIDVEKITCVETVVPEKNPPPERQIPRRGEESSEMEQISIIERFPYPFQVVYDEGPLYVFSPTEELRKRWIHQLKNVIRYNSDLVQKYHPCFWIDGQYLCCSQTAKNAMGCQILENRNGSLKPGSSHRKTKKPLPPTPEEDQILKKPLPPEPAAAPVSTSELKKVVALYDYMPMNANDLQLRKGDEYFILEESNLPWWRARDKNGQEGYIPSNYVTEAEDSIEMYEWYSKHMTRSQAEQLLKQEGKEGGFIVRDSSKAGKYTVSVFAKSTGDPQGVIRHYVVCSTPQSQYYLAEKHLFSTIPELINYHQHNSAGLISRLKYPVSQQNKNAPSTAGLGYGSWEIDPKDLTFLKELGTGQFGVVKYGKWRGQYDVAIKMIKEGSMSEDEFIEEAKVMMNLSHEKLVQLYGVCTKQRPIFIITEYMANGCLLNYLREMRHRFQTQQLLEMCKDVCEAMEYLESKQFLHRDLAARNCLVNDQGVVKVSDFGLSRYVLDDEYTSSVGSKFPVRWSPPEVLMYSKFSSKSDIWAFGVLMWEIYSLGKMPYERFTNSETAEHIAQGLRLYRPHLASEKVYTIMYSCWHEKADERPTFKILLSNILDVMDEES

Structure (SMILES): CCc1cnc(Nc2ccc(OC)nc2)c(-c2nc(C)nc3[nH]cnc23)c1 [Example 74, 5-ethyl-N-(6-methoxypyridin-3-yl)-3-(2-methyl-9H-purin-6-yl)pyridin-2-amine]
- POC (Percent of control) CDK2 [1]: 96 POC
- POC (Percent of control) BTK [2]: 99 POC
- POC (Percent of control) cRAF [3]: 101 POC
- POC (Percent of control) PRAK [4]: 97 POC
- POC (Percent of control) PKA alpha [5]: 102 POC
- POC (Percent of control) AKT1 [6]: 109 POC
- POC (Percent of control) MST2 [7]: 98 POC
- POC (Percent of control) DYRK1a [8]: 100 POC
- POC (Percent of control) LYN [9]: 97 POC
- POC (Percent of control) CHK1 [10]: 101 POC
- POC (Percent of control) MARK1 [11]: 111 POC
- POC (Percent of control) LCK [12]: 98 POC
- POC (Percent of control) INSR [13]: 96 POC
- POC (Percent of control) cMET [14]: 102 POC
- POC (Percent of control) MSK1 [15]: 98 POC
- POC (Percent of control) ERK1 [16]: 99 POC
- POC (Percent of control) CAMK4 [17]: 95 POC
- POC (Percent of control) p70S6K [18]: 98 POC
- POC (Percent of control) GSK3 beta [19]: 100 POC
- POC (Percent of control) ABL [20]: 103 POC
- POC (Percent of control) AURORA A [21]: 102 POC
- POC (Percent of control) FLT3 [22]: 122 POC
- POC (Percent of control) ERK2 [23]: 101 POC
- POC (Percent of control) PKGa2 [24]: 92 POC
- POC (Percent of control) SRC [25]: 99 POC
- POC (Percent of control) p38 alpha [26]: 101 POC
- POC (Percent of control) RSK1 [27]: 100 POC
- POC (Percent of control) FGFR1 [28]: 99 POC
- POC (Percent of control) HGK [29]: 94 POC
- POC (Percent of control) IGF1R [30]: 93 POC
- POC (Percent of control) CK1 delta [31]: 97 POC

Structure (SMILES): COc1ccc(Nc2ncc(CN3CCN(C(C)=O)CC3)cc2-c2nc(C)nc3[nH]cnc23)cn1 [Example 89, 1-(4-((6-(6-methoxypyridin-3-ylamino)-5-(2-methyl-9H-purin-6-yl)pyridin-3-yl)methyl)piperazin-1-yl)ethanone]
- POC (Percent of control) CDK2 [1]: 96 POC
- POC (Percent of control) BTK [2]: 102 POC
- POC (Percent of control) cRAF [3]: 99 POC
- POC (Percent of control) PRAK [4]: 99 POC
- POC (Percent of control) PKA alpha [5]: 99 POC
- POC (Percent of control) AKT1 [6]: 102 POC
- POC (Percent of control) MST2 [7]: 98 POC
- POC (Percent of control) DYRK1a [8]: 88 POC
- POC (Percent of control) LYN [9]: 96 POC
- POC (Percent of control) CHK1 [10]: 99 POC
- POC (Percent of control) MARK1 [11]: 92 POC
- POC (Percent of control) LCK [12]: 101 POC
- POC (Percent of control) INSR [13]: 97 POC
- POC (Percent of control) cMET [14]: 102 POC
- POC (Percent of control) MSK1 [15]: 91 POC
- POC (Percent of control) ERK1 [16]: 100 POC
- POC (Percent of control) CAMK4 [17]: 109 POC
- POC (Percent of control) p70S6K [18]: 89 POC
- POC (Percent of control) GSK3 beta [19]: 100 POC
- POC (Percent of control) ABL [20]: 107 POC
- POC (Percent of control) AURORA A [21]: 108 POC
- POC (Percent of control) FLT3 [22]: 95 POC
- POC (Percent of control) ERK2 [23]: 106 POC
- POC (Percent of control) PKGa2 [24]: 87 POC
- POC (Percent of control) SRC [25]: 101 POC
- POC (Percent of control) p38 alpha [26]: 100 POC
- POC (Percent of control) RSK1 [27]: 99 POC
- POC (Percent of control) FGFR1 [28]: 97 POC
- POC (Percent of control) HGK [29]: 95 POC
- POC (Percent of control) IGF1R [30]: 98 POC
- POC (Percent of control) CK1 delta [31]: 98 POC

Structure (SMILES): COc1ccc(Nc2ncc(Cc3ccc(S(C)(=O)=O)cc3)cc2-c2nc(C)nc3[nH]cnc23)cn1 [Example 103, N-(6-methoxypyridin-3-yl)-3-(2-methyl-9H-purin-6-yl)-5-(4-(methylsulfonyl)benzyl)pyridin-2-amine]
- POC (Percent of control) CDK2 [1]: 100 POC
- POC (Percent of control) BTK [2]: 97 POC
- POC (Percent of control) cRAF [3]: 100 POC
- POC (Percent of control) PRAK [4]: 103 POC
- POC (Percent of control) PKA alpha [5]: 99 POC
- POC (Percent of control) AKT1 [6]: 94 POC
- POC (Percent of control) MST2 [7]: 98 POC
- POC (Percent of control) DYRK1a [8]: 83 POC
- POC (Percent of control) LYN [9]: 97 POC
- POC (Percent of control) CHK1 [10]: 107 POC
- POC (Percent of control) MARK1 [11]: 131 POC
- POC (Percent of control) LCK [12]: 92 POC
- POC (Percent of control) INSR [13]: 95 POC
- POC (Percent of control) cMET [14]: 94 POC
- POC (Percent of control) MSK1 [15]: 101 POC
- POC (Percent of control) ERK1 [16]: 101 POC
- POC (Percent of control) CAMK4 [17]: 95 POC
- POC (Percent of control) p70S6K [18]: 109 POC
- POC (Percent of control) GSK3 beta [19]: 96 POC
- POC (Percent of control) ABL [20]: 95 POC
- POC (Percent of control) AURORA A [21]: 100 POC
- POC (Percent of control) FLT3 [22]: 85 POC
- POC (Percent of control) ERK2 [23]: 94 POC
- POC (Percent of control) PKGa2 [24]: 98 POC
- POC (Percent of control) SRC [25]: 89 POC
- POC (Percent of control) p38 alpha [26]: 92 POC
- POC (Percent of control) RSK1 [27]: 100 POC
- POC (Percent of control) FGFR1 [28]: 100 POC
- POC (Percent of control) HGK [29]: 85 POC
- POC (Percent of control) IGF1R [30]: 91 POC
- POC (Percent of control) CK1 delta [31]: 120 POC
